Experimental data as given in ChEMBL document CHEMBL4673334, “In Vivo Biological Evaluation of a Synthetic Royleanone Derivative as a Promising Fast-Acting Trypanocidal Agent by Inducing Mitochondrial-Dependent Necrosis” (J Nat Prod, 2020).
Calls of active or inactive are those of the source. The rule behind the calls is not given here.

Tests used:
Trypanosoma cruzi [1] = experiment: Antitrypanosomal activity against Trypanosoma cruzi MHOM/Pe/2011/Arequipa(DTU V) amastigote form infected in BALB/c mouse assessed as reduction in spleen enlargement at 20 mg/kg, po administered for 5 days starting at 100 days post infection and measured after 145 days post infection; assay type: functional, organism-based; details: time 5.0 day
Trypanosoma cruzi [2] = experiment: Inhibition of Trypanosoma cruzi MHOM/Pe/2011/Arequipa(DTU V) epimastigote form Fe-SOD at 25 uM by UV-VIS spectrophotometric method relative to control
Trypanosoma cruzi [3] = experiment: Antitrypanosomal activity against Trypanosoma cruzi MHOM/Pe/2011/Arequipa(DTU V) amastigote form infected in BALB/c mouse assessed as reduction in spleen enlargement at 20 mg/kg, po administered for 5 days starting at 9 days post infection and measured after 145 days post infection; assay type: functional, organism-based; details: time 5.0 day
Trypanosoma cruzi [4] = experiment: Antitrypanosomal activity against Trypanosoma cruzi MHOM/Pe/2011/Arequipa(DTU V) amastigote form infected in BALB/c mouse assessed as reduction in parasite growth at 20 mg/kg, po administered for 5 days starting at 9 days post infection and measured up to 106 days post infection by ELISA assay; assay type: functional, organism-based; details: time 5.0 day
Trypanosoma cruzi [5] = experiment: Antitrypanosomal activity against Trypanosoma cruzi MHOM/Pe/2011/Arequipa(DTU V) amastigote form infected in BALB/c mouse assessed as reduction in parasite growth at 20 mg/kg, po administered for 5 days starting at 100 days post infection and measured up to 106 days post infection by ELISA assay; assay type: functional, organism-based; details: time 5.0 day
Trypanosoma cruzi [6] = experiment: Inhibition of Trypanosoma cruzi MHOM/Pe/2011/Arequipa(DTU V) epimastigote form Fe-SOD at 12.5 uM by UV-VIS spectrophotometric method relative to control
Trypanosoma cruzi [7] = experiment: Antitrypanosomal activity against Trypanosoma cruzi MHOM/Pe/2011/Arequipa(DTU V) amastigote form infected in BALB/c mouse assessed as reduction in parasitaemia at 20 mg/kg, po for 5 days starting at 9 days post infection and measured after 7 days post infection relative to control; assay type: functional; set-up: scale not given: the % may be the effect or the level left; details: time 5 day

## COC(=O)[C@]1(C)CCC[C@]2(C)C3=C(C=C[C@@H]12)C(=O)C(C(C)C)=CC3=O
Trypanosoma cruzi [1]
  Activity: Active
Trypanosoma cruzi [2]
  inhibition: 100%
Trypanosoma cruzi [3]
  Activity: Active
Trypanosoma cruzi [4]
  Activity: Active
Trypanosoma cruzi [5]
  Activity: Active
Trypanosoma cruzi [6]
  inhibition: 80%
Trypanosoma cruzi [7]
  Activity: 65%
